BindingDB's records for doi:10.1021/jm048962u (The Burnham Institute, 2005)

Target: RAC-alpha serine/threonine-protein kinase (Homo sapiens, UniProt P31749)
Assay: Z-LYTE Kinase Assy
Settings: pH 7.5; 25 °C
Excerpt: The Z-LYTE assay (Invitrogen Corporation) employs a FRET-based, coupled-enzyme format and is based on the differential sensitivity of phosphorylated and non-phosphorylated peptides to proteolytic cleavage. A site-specific protease recognizes and cleaves nonphosphorylated peptides. […] Cleavage disrupts FRET between the donor (coumarin) and acceptor (fluorescein) fluorophores on the peptide, whereas uncleaved, phosphorylated peptides maintain FRET. The ratio of donor emission to acceptor emission after excitation of the donor fluorophore at 400 nm, quantitates reaction progress.

Sequence of RAC-alpha serine/threonine-protein kinase (P31749 whole entry): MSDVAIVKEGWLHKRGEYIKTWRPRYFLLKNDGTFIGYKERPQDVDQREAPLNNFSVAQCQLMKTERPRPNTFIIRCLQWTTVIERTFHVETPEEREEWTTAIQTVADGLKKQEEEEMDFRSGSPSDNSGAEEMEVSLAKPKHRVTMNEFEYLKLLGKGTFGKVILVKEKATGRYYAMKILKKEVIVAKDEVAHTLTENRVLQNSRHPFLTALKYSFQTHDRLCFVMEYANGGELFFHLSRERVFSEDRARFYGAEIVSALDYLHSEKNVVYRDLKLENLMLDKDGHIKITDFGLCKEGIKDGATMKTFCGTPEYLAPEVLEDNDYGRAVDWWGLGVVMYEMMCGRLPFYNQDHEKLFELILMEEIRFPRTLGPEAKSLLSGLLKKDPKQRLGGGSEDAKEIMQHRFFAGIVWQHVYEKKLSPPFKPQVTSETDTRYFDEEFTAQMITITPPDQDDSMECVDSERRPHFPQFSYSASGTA

| Compound | IC50 | Ki |
| --- | --- | --- |
| C=c1c(C#N)c2[nH]c(N)c(C#N)c(C)c-2c1=Cc1ccc(-c2ccc(C(=O)O)c(Cl)c2)o1 | 2600 nM | 1100 nM |
| C=c1c(C#N)c2[nH]c(N)c(C#N)c(C)c-2c1=Cc1ccc(-c2cccc(C(=O)O)c2)o1 [3-(5-{[(5E)-2-amino-3,7-dicyano-4,6-dimethyl-5H-cyclopenta[b]pyridin-5-ylidene]methyl}furan-2-yl)benzoic acid] | 60200 nM |  |
